{
  "source": "patent US20170166870A1",
  "about": "“HUMAN HEPATIC 3D CO-CULTURE MODEL AND USES THEREOF” (Vrije Universiteit Brussel, priority 2014, published 2017)",
  "key": {"3D HepaRG/HSC co-culture [1]": {"test_system": "3D HepaRG/HSC co-culture", "assay": "Single and repeated exposure, cell viability (% ATP), serum-free medium", "assay_type": "cell-based, human", "method": "Culture medium. Day 0 cells were resuspended in HepaRG thawing medium and from day 1 to 21 cells were kept in the HepaRG culture medium 0% DMSO, until day 8. For the repeated versus single compound exposure assays, on day 8, the HepaRG culture medium 0% DMSO was replaced by the Serum-free HepaRG maintenance medium described in Klein et. al. 2013 (HepaRG Induction/Toxicity medium, DMSO 0.5% (v/v), 2 μg/ml of epidermal growth factor and 10 μg/ml of hepatocyte growth factor) and kept in this medium until the end of culture.\n(§1) Single and repeated exposure. For the single and repeated compound exposure cell spheroids (3D HepaRG/HSC, 3D HepaRG and 3D HSC) were exposed respectively on day 20 for 24 h or every second day from day 8 to day 21 in serum-free medium with no additional solvent. Cells were exposed to a range of 8 concentrations between 0.5 and 80 mM for APAP single-dose, 0.125 and 40 mM for APAP repeated-dose, 0.3 and 500 μM Allyl Alcohol (AA, Sigma-Aldrich), 1.9 and 1000 μM Methotrexate (MTX, Pfizer, NY, USA). For the recovery assay, on day 21, cells were washed using serum-free medium and kept for 3 extra days.\nCell viability assay was performed by measuring ATP production upon individual spheroid exposure to the different concentrations of the test compound. Cell spheroids were lysed individually for viability analysis using the Cell titer Glo kit (Promega) following the instructions of the manufacturer. Luminescence values were converted into percentage of ATP by comparison with controls and converted into dose-response curves using Prism 5 software."}, "3D HepaRG/HSC co-culture [2]": {"test_system": "3D HepaRG/HSC co-culture", "assay": "Single and repeated exposure, gene expression of HSC activation markers", "assay_type": "cell-based, human", "details": "for HSC activation (up-regulation of activation markers, mRNA): serum-free medium", "method": "as §1\nFor the cell culture samples, total RNA from 4-6 pooled spheroids was extracted from cells using the RNeasy Micro Kit (Qiagen, Venlo, Limburg, Netherlands). In the mouse assays, sorted HSC from different mice were lysed separately. Total RNA from tissue cultured cells was extracted using ReliaPrep RNA Cell Miniprep System (Promega).\nReverse-transcription using the Revert Aid Kit (ThermoFisher Scientific, Waltham, Massachusetts, USA) allowed conversion of RNA to cDNA. The RT reaction was performed at 25° C. for ten minutes followed by 30 minutes at 50° C. For quantitative real-time polymerase chain reaction (qPCR), GoTaq QPCR Master Mix with BRYTE green (Promega) was used, subjected to qPCR in a 7500 real time PCR system and analysed using System SDS software v2.0.5 (Applied Biosystems, Waltham, Mass., USA), using GAPDH for normalisation. Reliability of GAPDH as house-keeping gene was determined using Normfinder (Anderson et al., 2004). Fold change differences between samples were determined using the comparative Ct (δδCt) method. The expression level of different targets, relative to GAPDH (δCt) and relative to the calibrator, was given by 2^−δδCt."}, "3D HepaRG/HSC co-culture [3]": {"test_system": "3D HepaRG/HSC co-culture", "assay": "Single and repeated exposure, procollagen in culture supernatant", "assay_type": "cell-based, human", "details": "repeated exposure, day 14; not observed at day 21", "from_the_text": "(§2) FIG. 10: APAP and reference fibrotic compounds in single- and repeated-exposure of the 3D HepaRG/HSC co-culture. (A, C and E) cell viability, represented by % ATP and (B, D and F) gene expression. Error bars represent the standard deviation between independent assays (N=2) each point represents the pool of 5-6 spheroids. (D, F) Graph inserts represent the second repeat of the assay. Due to the variation between assays values could not be averaged together. Each point represents the pool of 5-6 spheroids. (G-H) Fibrosis read-outs at the protein level. (G) Procollagen measurements in culture supernatant upon single and repeated compound exposure (day 14 and 21) to 3D HepaRG/HSCs. (H) Procollagen measurements in culture supernatant upon 24 h incubation with the reference pro-fibrotic compounds of 3D HepaRG and 3D HSCmono-cultures.\n(§3) Samples for pro-collagen measurement were five times concentrated using 10 kD Vivaspin 500 ultrafiltration columns (VWR, Radnor, Pa.), the resulting supernatant was analysed for the presence of Type I C-Peptide using the TAKARA (Chanteloup-en-Brie, France) kit.\n(§4) Single and repeated exposure. For the single and repeated compound exposure cell spheroids (3D HepaRG/HSC, 3D HepaRG and 3D HSC) were exposed respectively on day 20 for 24 h or every second day from day 8 to day 21 in serum-free medium with no additional solvent. […]"}, "[4]": {"test_system": "3D HepaRG and 3D HSC mono-cultures", "assay": "Procollagen in culture supernatant of mono-cultures, reference pro-fibrotic compounds", "assay_type": "cell-based, human", "details": "3D mono-cultures, 24 h incubation", "from_the_text": "as §2, §3, §4"}, "3D HepaRG/HSC co-culture [5]": {"test_system": "3D HepaRG/HSC co-culture", "assay": "Exposure to pro-fibrotic factors, gene expression", "assay_type": "cell-based, human", "method": "From day 14 to day 21, 3D HepaRG/HSC spheroids were exposed to a solution of 100 ng/ml Lipopolysaccharide (LPS, Sigma) in culture medium, refreshed every second day up to day 21. Incubation with the Transforming growth factor-β1 (TGF-β1, R&D systems inc., Minneapolis, Minn., USA) was performed on day 19 for 48 h at a concentration of 10 ng/ml in HepaRG Induction/Toxicity medium. On day 21, cells were lysed and gene expression was analyzed upon RNA extraction.\n(§5) Total RNA was extracted from cells using the ReliaPrep RNA Cell Miniprep System (Promega, Madison, Wis.). Reverse-transcription using the Revert Aid Kit (ThermoFisher Scientific, St. Leon-Rot, Germany) allowed conversion of RNA to cDNA. The RT reaction was performed at 25° C. for ten minutes followed by 30 minutes at 50° C. For quantitative real-time polymerase chain reaction (qPCR), GoTaq QPCR Master Mix with BRYTE green (Promega, Madison, Wis.) was used, subjected to qPCR in a 7500 real time PCR system and analysed using System SDS software v2.0.5 (Applied Biosystems), using GAPDH for normalisation."}, "[6]": {"test_system": "3D mouse hepatocyte/HSC co-culture (1Hep:2HSC)", "assay": "LPS stimulation of 3D mouse hepatic co-cultures, aSMA and Col1a1 expression", "assay_type": "cell-based", "details": "6 days LPS treatment, day 9; 1Hep:2HSC ratio", "from_the_text": "FIG. 1: Screen of hepatocyte:hepatic stellate cell ratios in 3D mouse cultures. Figure represents the HSC activation markers (A, B) and Hepatocyte markers (C) measured in the different 3D mouse hepatic co-cultures. A—basal gene expression of fibrotic markers (aSMA and Col1a1) on day 9 of culture. B—Fold increase of aSMA and Col1a1 on day 9 upon 6 days treatment with the pro-fibrotic factor LPS. Horizontal line corresponds to non-treated 3D co-cultures for each case. C—over-time gene expression of albumin (a) and CYP3A11 (b) in the 3D co-cultures where better results were obtained previously (2hep:1HSC and 1Hep:2HSC). Comparisons between groups were analyzed for statistical significance by one-way ANOVA followed by Tukey. *** p<0.001; ** p<0.01; * p<0.05. […]\nTotal RNA was extracted from cells using the ReliaPrep RNA Cell Miniprep System (Promega, Madison, Wis.). […] For quantitative real-time polymerase chain reaction (qPCR), GoTaq QPCR Master Mix with BRYTE green (Promega, Madison, Wis.) was used, subjected to qPCR in a 7500 real time PCR system and analysed using System SDS software v2.0.5 (Applied Biosystems), using GAPDH for normalisation. Reliability of GAPDH as house-keeping gene was determined using Normfinder (Andersen, Jensen et al. 2004) to produce the ΔCT values. […]"}, "3D HepaRG/HSC co-culture [7]": {"test_system": "3D HepaRG/HSC co-culture", "assay": "APAP toxicity assay, cell viability by ATP (Cell titer Glo)", "assay_type": "cell-based, human", "details": "2.5 mM VPA with APAP", "method": "APAP toxicity assay was performed in 3D HepaRG/co-culture as well as in 3D HepaRG monoculture. […] For some experiments the culture medium was supplemented with 2.5 mM valproic acid (VPA sodium salt, Sigma-Aldrich) or with cytokine mixture (Raicevic et al.,2012)-interleukin (IL)-1β 25 ng/mL (Peprotech, Rocky Hill, N.J., USA), interferon (IFN)-γ 10^3 U/mL, tumor necrosis factor (TNF)-a 50 ng/mL, and IFN-α 3·10^3 U/mL (all from Prospec, Inc., East Brunswick, N.J., USA). For the recovery assay, at the end of APAP incubation, cells were washed using HepaRG culture 0% DMSO medium and kept in the same medium for 3 more days.\n(§6) At the end of the incubation period, 5 spheroids per condition were pooled and lysed for RNA analyses, while the remaining spheroids per condition were lysed individually for viability analysis using the Cell titer Glo kit (Promega) for ATP measurements following the instructions of the manufacturer."}, "3D HepaRG/HSC co-culture [8]": {"test_system": "3D HepaRG/HSC co-culture", "assay": "mRNA expression of HSC activation markers (qPCR) after APAP incubation", "assay_type": "cell-based, human", "details": "2.5 mM VPA, highest APAP concentrations", "method": "APAP toxicity assay was performed in 3D HepaRG/co-culture as well as in 3D HepaRG monoculture. For 24 h, starting at day 20, cells were exposed to a range of APAP concentrations between 0.5 and 80 mM, keeping cells with the solvent (0.1% DMSO) as a control. For some experiments the culture medium was supplemented with 2.5 mM valproic acid (VPA sodium salt, Sigma-Aldrich) or with cytokine mixture (Raicevic et al.,2012)-interleukin (IL)-1β 25 ng/mL (Peprotech, Rocky Hill, N.J., USA), interferon (IFN)-γ 10^3 U/mL, tumor necrosis factor (TNF)-a 50 ng/mL, and IFN-α 3·10^3 U/mL (all from Prospec, Inc., East Brunswick, N.J., USA). For the recovery assay, at the end of APAP incubation, cells were washed using HepaRG culture 0% DMSO medium and kept in the same medium for 3 more days.\nas §6, §5"}},
  "note": "Read-outs that look alike come from different tables or passages of the source.",
  "data": [
    {"compound": "C=CCO", "note": "[Allyl Alcohol]", "values": [
      {"measurement": "cell viability dose-response", "setting": "3D HepaRG/HSC co-culture [1]; repeated exposure", "value": "disappeared upon repeated exposure"},
      {"measurement": "cell viability", "setting": "3D HepaRG/HSC co-culture [1]; single exposure", "value": "dose-response observed at the single exposure"},
      {"measurement": "HSC activation (up-regulation of activation markers, mRNA)", "setting": "3D HepaRG/HSC co-culture [2]; repeated exposure", "value": "increase of the HSC activation markers at mRNA levels"},
      {"measurement": "HSC activation (up-regulation of activation markers, mRNA)", "setting": "3D HepaRG/HSC co-culture [2]; single exposure 24 h", "value": "increase of the HSC activation markers at mRNA levels"},
      {"measurement": "collagen secretion", "setting": "3D HepaRG/HSC co-culture [3]", "value": "high collagen secretion at day 14"},
      {"measurement": "collagen secretion", "setting": "[4]", "value": "no collagen secretion is detected"}
    ]},
    {"compound": "Lipopolysaccharide [LPS]", "values": [
      {"measurement": "survivor markers (IL6, MMP1, CCL2, TNFα, IL1β) expression", "setting": "3D HepaRG/HSC co-culture [5]; 100 ng/ml LPS, 6 days", "value": "induced an up-regulation of the survivor markers"},
      {"measurement": "activation response (aSMA, Col1a1)", "setting": "[6]", "value": "increased aSMA and Col1a1"}
    ]},
    {"compound": "CN(Cc1cnc2nc(N)nc(N)c2n1)c1ccc(C(=O)N[C@@H](CCC(=O)O)C(=O)O)cc1", "note": "[MTX, Methotrexate]", "values": [
      {"measurement": "cell viability", "setting": "3D HepaRG/HSC co-culture [1]", "value": "does not seem to affect cell viability at any of the tested concentrations"},
      {"measurement": "percentage of ATP production", "setting": "3D HepaRG/HSC co-culture [1]; repeated exposure, lowest concentration", "value": "less than 20%"},
      {"measurement": "recovery of HSC 3 days after compound washout", "setting": "3D HepaRG/HSC co-culture [2]; repeated exposure 63 μM", "value": "observed"},
      {"measurement": "HSC activation (up-regulation of activation markers, mRNA)", "setting": "3D HepaRG/HSC co-culture [2]; repeated exposure", "value": "dramatically compensated"},
      {"measurement": "HSC activation (up-regulation of activation markers, mRNA)", "setting": "3D HepaRG/HSC co-culture [2]; single exposure 24 h", "value": "no longer observed"},
      {"measurement": "collagen secretion", "setting": "3D HepaRG/HSC co-culture [3]", "value": "high collagen secretion at day 14"},
      {"measurement": "collagen secretion", "setting": "[4]", "value": "no collagen secretion is detected"}
    ]},
    {"compound": "CCCC(CCC)C(=O)O", "note": "[VPA, valproic acid]", "values": [
      {"measurement": "effect on APAP toxicity (cell viability)", "setting": "3D HepaRG/HSC co-culture [7]", "value": "did not affect APAP toxicity"},
      {"measurement": "effect on APAP-induced HSC markers", "setting": "3D HepaRG/HSC co-culture [8]", "value": "lower up-regulation of the HSC markers"}
    ]},
    {"compound": "TGFβ: Transforming growth factor-β1, known pro-fibrogenic factor", "values": [
      {"measurement": "activation markers (Acta2, Col1a1, Col3a1, Loxl2) expression", "setting": "3D HepaRG/HSC co-culture [5]; 10 ng/ml TGFβ, 48 h, day 21", "value": "acted on the activation markers"}
    ]}
  ]
}
